Laboratory results as given in US12655116B2, “Substituted isophthalic acid diamides” (Bayer Aktiengesellschaft, priority 2020, dated 2026).

What was measured:
VERPE [1] = assay: Post-emergence herbicidal action against VERPE; assay type: in vivo, Veronica persica; settings: Veronica persica, 504 h
How it was run: (§1)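 Post-emergence greenhouse test; one-leaf stage, 2–3 wk post-sowing, sandy loam. Foliar spray of WP/EC in water, 600–800 l/ha, +0.2% wetting agent. Visual % action at ~3 wk vs untreated (100% = plants dead).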

POLCO [2] = assay: Pre-emergence herbicidal action against POLCO; assay type: in vivo, Polygonum convolvulus; settings: Fallopia convolvulus, 504 h, dosage 80 g/ha
How it was run: (§2)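 Herbicidal effect was assessed 3 weeks after treatment by visual comparison with untreated controls, 100% denoting dead plants. Aqueous WP or EC preparations had been applied at 600 to 800 l/ha with 0.2% wetting agent to the soil covering freshly sown seeds.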

ALOMY [3] = assay: Post-emergence herbicidal action against ALOMY; assay type: in vivo, Alopecurus myosuroides; settings: Alopecurus myosuroides, 504 h, dosage 20 g/ha, visual assessment about 3 weeks after treatment vs untreated controls
How it was run: as §1

POLCO [4] = assay: Post-emergence herbicidal action against POLCO; assay type: in vivo, Polygonum convolvulus; settings: dosage 20 g/ha
How it was run: as §1

VERPE [5] = assay: Pre-emergence herbicidal action against VERPE; assay type: in vivo, Veronica persica
How it was run: as §2

AMARE [6] = assay: Pre-emergence herbicidal action against AMARE; assay type: in vivo, Amaranthus retroflexus
How it was run: as §2

AVEFA = assay: Pre-emergence herbicidal action against AVEFA; assay type: in vivo, Avena fatua; settings: 80 g/ha, pre-emergence
How it was run: as §2

SETVI [7] = assay: Pre-emergence herbicidal action against SETVI; assay type: in vivo, Setaria viridis; settings: Setaria viridis, 504 h
How it was run: as §2

VIOTR [8] = assay: Pre-emergence herbicidal action against VIOTR; assay type: in vivo, Viola tricolor
How it was run: as §2

ABUTH [9] = assay: Post-emergence herbicidal action against ABUTH; assay type: in vivo, Abutilon theophrasti; settings: visual assessment about 3 weeks after treatment vs untreated controls
How it was run: as §1

MATIN [10] = assay: Post-emergence herbicidal action against MATIN; assay type: in vivo, Matricaria inodora; settings: Tripleurospermum inodorum, 504 h
How it was run: as §1

ALOMY [11] = assay: Pre-emergence herbicidal action against ALOMY; assay type: in vivo, Alopecurus myosuroides; settings: Alopecurus myosuroides, 504 h, pre-emergence
How it was run: as §2

VIOTR [12] = assay: Post-emergence herbicidal action against VIOTR; assay type: in vivo, Viola tricolor
How it was run: as §1

MATIN [13] = assay: Pre-emergence herbicidal action against MATIN; assay type: in vivo, Matricaria inodora
How it was run: as §2

DIGSA [14] = assay: Pre-emergence herbicidal action against DIGSA; assay type: in vivo, Digitaria sanguinalis
How it was run: as §2

SETVI [15] = assay: Post-emergence herbicidal action against SETVI; assay type: in vivo, Setaria viridis; settings: Setaria viridis, 504 h
How it was run: as §1

ECHCG [16] = assay: Post-emergence herbicidal action against ECHCG; assay type: in vivo, Echinochloa crus-galli; settings: Echinochloa crus-galli, 504 h
How it was run: as §1

DIGSA [17] = assay: Post-emergence herbicidal action against DIGSA; assay type: in vivo, Digitaria sanguinalis; settings: Digitaria sanguinalis, 504 h
How it was run: as §1

ABUTH [18] = assay: Pre-emergence herbicidal action against ABUTH; assay type: in vivo, Abutilon theophrasti
How it was run: as §2

PHBPU = assay: Pre-emergence herbicidal action against PHBPU; assay type: in vivo, Pharbitis purpurea; settings: Ipomoea purpurea, 504 h
How it was run: as §2

AMARE [19] = assay: Post-emergence herbicidal action against AMARE; assay type: in vivo, Amaranthus retroflexus; settings: 20 g/ha, visual assessment about 3 weeks after treatment, 100% = plants have died, 0% = like control plants
How it was run: as §1

ECHCG [20] = assay: Pre-emergence herbicidal action against ECHCG; assay type: in vivo, Echinochloa crus-galli; settings: Echinochloa crus-galli, 504 h
How it was run: as §2

STEME [21] = assay: Post-emergence herbicidal action against STEME; assay type: in vivo, Stellaria media; settings: 20 g/ha
How it was run: as §1

STEME [22] = assay: Pre-emergence herbicidal action against STEME; assay type: in vivo, Stellaria media
How it was run: as §2

[23] = 80 g/ha, scored visually after 3 weeks vs untreated controls (100% = plants have died, 0% = like control plants)

SMILES: CCNC(=O)c1c(C(F)(F)F)ccc(C(=O)Nc2nnnn2CC)c1C1CC1 [Example 2-287]
- pest or weed control at 5 g/ha (VERPE [1]; 5 g/ha): 80%
- pest or weed control at 20 g/ha (VERPE [1]; 20 g/ha): 100%
- pest or weed control at 80 g/ha (POLCO [2]): 80%
- pest or weed control at 20 g/ha (ALOMY [3]): 90%
- pest or weed control at 20 g/ha (POLCO [4]; Fallopia convolvulus, 504 h): 100%
- pest or weed control at 20 g/ha (VERPE [5]; Veronica persica, 504 h, dosage 20 g/ha): 90%
- pest or weed control at 80 g/ha (VERPE [5]; Veronica persica, 504 h, dosage 80 g/ha): 100%
- pest or weed control at 20 g/ha (AMARE [6]; Amaranthus retroflexus, 504 h, 20 g/ha, scored visually after 3 weeks vs untreated controls, 100% = plants have died, 0% = like control plants): 100%
- pest or weed control at 80 g/ha (AMARE [6]; Amaranthus retroflexus, 504 h, 80 g/ha, scored visually after 3 weeks vs untreated controls, 100% = plants have died, 0% = like control plants): 100%
- pest or weed control at 80 g/ha (AVEFA; Avena fatua, 504 h): 80%
- pest or weed control at 20 g/ha (SETVI [7]; dosage 20 g/ha): 90%
- pest or weed control at 80 g/ha (SETVI [7]; dosage 80 g/ha): 100%
- pest or weed control at 20 g/ha (VIOTR [8]; Viola tricolor, 504 h, dosage 20 g/ha): 100%
- pest or weed control at 80 g/ha (VIOTR [8]; Viola tricolor, 504 h, dosage 80 g/ha): 100%
- pest or weed control at 5 g/ha (ABUTH [9]; Abutilon theophrasti, 504 h, dosage 5 g/ha): 80%
- pest or weed control at 20 g/ha (ABUTH [9]; Abutilon theophrasti, 504 h, dosage 20 g/ha): 80%
- pest or weed control at 5 g/ha (MATIN [10]; dosage 5 g/ha): 90%
- pest or weed control at 20 g/ha (MATIN [10]; dosage 20 g/ha): 90%
- pest or weed control at 80 g/ha (ALOMY [11]; [23]): 90%
- pest or weed control at 20 g/ha (ALOMY [11]; 20 g/ha, scored visually after 3 weeks, 100% = plants have died, 0% = like control plants): 80%
- pest or weed control at 5 g/ha (VIOTR [12]; Viola tricolor, 504 h, 5 g/ha): 80%
- pest or weed control at 20 g/ha (VIOTR [12]; Viola tricolor, 504 h, 20 g/ha): 90%
- pest or weed control at 20 g/ha (MATIN [13]; Tripleurospermum inodorum, 504 h, dosage 20 g/ha): 100%
- pest or weed control at 80 g/ha (MATIN [13]; Tripleurospermum inodorum, 504 h, dosage 80 g/ha): 100%
- pest or weed control at 20 g/ha (DIGSA [14]; Digitaria sanguinalis, 504 h, dosage 20 g/ha): 100%
- pest or weed control at 80 g/ha (DIGSA [14]; Digitaria sanguinalis, 504 h, dosage 80 g/ha): 100%
- pest or weed control at 5 g/ha (SETVI [15]; dosage 5 g/ha): 80%
- pest or weed control at 20 g/ha (SETVI [15]; dosage 20 g/ha): 90%
- pest or weed control at 5 g/ha (ECHCG [16]; dosage 5 g/ha): 80%
- pest or weed control at 20 g/ha (ECHCG [16]; dosage 20 g/ha): 80%
- pest or weed control at 5 g/ha (DIGSA [17]; 5 g/ha): 90%
- pest or weed control at 20 g/ha (DIGSA [17]; 20 g/ha): 90%
- pest or weed control at 80 g/ha (ABUTH [18]; Abutilon theophrasti, 504 h, 80 g/ha, scored visually after 3 weeks vs untreated controls (100% = plants have died, 0% = like control plants)): 100%
- pest or weed control at 20 g/ha (ABUTH [18]; Abutilon theophrasti, 504 h, dosage 20 g/ha, scored visually after 3 weeks vs untreated controls, 100% = plants have died, 0% = like control plants, read-out: Pre-emergence action against ABUTH (herbicidal activity in percent)): 100%
- pest or weed control at 20 g/ha (PHBPU; dosage 20 g/ha): 80%
- pest or weed control at 80 g/ha (PHBPU; dosage 80 g/ha): 80%
- pest or weed control at 20 g/ha (AMARE [19]; Amaranthus retroflexus, 504 h): 100%
- pest or weed control at 20 g/ha (ECHCG [20]; 20 g/ha): 90%
- pest or weed control at 80 g/ha (ECHCG [20]; 80 g/ha): 100%

SMILES: CCCn1nnnc1NC(=O)c1ccc(S(C)(=O)=O)c(C(=O)NC2CC2)c1Cl [Example 3-125]
- Post-emergence action against STEME in % (STEME [21]): 80%
- Post-emergence action against POLCO in % (POLCO [4]): 80%
- Pre-emergence action against VERPE in % (VERPE [5]; dosage 80 g/ha): 80%
- Pre-emergence action against AMARE in % (AMARE [6]; [23]): 100%
- Pre-emergence action against AVEFA in % (AVEFA): 80%
- Pre-emergence action against VIOTR in % (VIOTR [8]; dosage 80 g/ha): 100%
- Post-emergence action against ABUTH in % (ABUTH [9]; dosage 20 g/ha): 80%
- Pre-emergence action against STEME in % (STEME [22]; dosage 20 g/ha): 90%
- Pre-emergence action against STEME in % (STEME [22]; dosage 80 g/ha): 100%
- Post-emergence action against VIOTR in % (VIOTR [12]; 20 g/ha): 80%
- Pre-emergence action against MATIN in % (MATIN [13]; dosage 20 g/ha): 100%
- Pre-emergence action against MATIN in % (MATIN [13]; dosage 80 g/ha): 100%
- Pre-emergence action against DIGSA in % (DIGSA [14]; dosage 80 g/ha): 80%
- Pre-emergence action against ABUTH (herbicidal activity) (ABUTH [18]; [23]): 100%
- Post-emergence action at 20 g/ha against AMARE in % (AMARE [19]): 90%
